{"source": "patent US20210299079A1", "about": "“MONOMETHYL FUMARATE-CARRIER CONJUGATES AND METHODS OF THEIR USE” (Flagship Pioneering Innovations V, Inc., priority 2018, published 2021)", "key": {"[1]": {"assay": "In vitro Colonic Material Stability Assay", "assay_type": "in vitro ADME", "conditions": "colonic material slurry in YCFAC media, anaerobic, 1 or 10 μM", "in_short": "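Anaerobically, a colonic material slurry (15% w/v) was inoculated into YCFAC or other suitable media. Compounds were added at 1 or 10 μM final. Samples taken at 0–2880 min were quenched with acetonitrile containing internal standard and analysed by LC/MS.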"}, "[2]": {"assay": "Stability of conjugates in Simulated Intestinal Fluid (SIF)", "assay_type": "in vitro ADME", "conditions": "SIF pH 6.7 with pancreatin, 37° C., 1 μM compound", "in_short": "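Compounds at 1 μM in fresh simulated intestinal fluid: FaSSIF powder in pH 6.7 phosphate buffer with pancreatin. Agitated at 37 °C; aliquots taken at T0 and regular intervals, quenched with 1 volume acetonitrile. Degradation rates determined by LC/MS.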"}, "[3]": {"assay": "In Vitro Biotransformation and Detection of Monomethyl Fumarate Assay", "assay_type": "in vitro ADME", "conditions": "FaSSIF with pancreatin pH 6.5, 100 μM compound, 0 h and 2 h, UHPLC-MSMS", "method": "Stock solution of compound 2 was prepared at 10 mM in DMSO. FaSSIF was made by mixing sodium taurocholate (3.0 mM) Lecithin (0.75 mM), and pancreatin (10 mg/mL) in prepared solution of sodium phosphate monobasic (28.4 mM), sodium hydroxide (8.7 mM), sodium chloride (105.9 mM), pH 6.5. Compound 2, was added to FaSSIF to final concentration of 100 μM. Release of monomethyl fumaric acid (MMF) was monitored via UHPLC-MSMS and comparing the retention time and corresponding fragmentation of released MMF to retention time and fragmentation of a neat solution of MMF that was analyzed separately with the same method described below. Release of MMF was measured at 0 h and 2 h time points. At both time points samples were centrifuged at 14000 rpm for 10 minutes at 4° C. Supernatants were then transferred to HPLC vials and analyzed immediately. The results of this assay are illustrated in FIG. 1."}, "[4]": {"assay": "Stability of conjugates in Simulated Gastric Fluid (SGF)", "assay_type": "in vitro ADME", "conditions": "SGF pH 1.6 with pepsin, 37° C., 1 μM compound", "in_short": "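Compound at 1 μM (from 1 mM DMSO stock) in pH 1.6 NaCl medium with FaSSIF powder and 0.1 mg/mL pepsin, mixed at 37° C. Aliquots quenched with equal volume acetonitrile at T0 and regular intervals; LC/MS gives degradation rate.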"}, "[5]": {"conditions": "male, Sprague Dawley, rat, in vivo, po", "protocol": "The amount of compound dosed was normalized to provide approximately equimolar amounts of monomethylfumarate. Approximately 150 μL whole blood samples were collected at 15 and 30 min; and 1, 2, 4, 8, and 24 h post-dosing from the jugular or tail vein. 100 μL of samples were added to K2EDTA tubes pre-filled with 300 μL of 100 mM tiopronin in 100 mM ammonium bicarbonate (pH 9.0). Samples were vortex-mixed for approximately 5 min at ambient temperature in order to trap free fractions of monomethyl fumarate."}, "Caco-2 colonocytes": {"tested_on": "Caco-2 colonocytes", "assay": "Human Caco-2 Barrier Integrity Assay, Study 1", "assay_type": "cell-based", "conditions": "Caco-2, + cytokines (TNFα, IFNγ, IL-1β), 48 hours", "method": "Caco-2 colonocytes were maintained at 37° C. and 5% CO2 in Dulbecco's Modified Eagle Medium (DMEM) and supplemented with 10% FBS, 1% NEAA, 1% penicillin-streptomycin. At 70-80% confluency, cells were trypsinized and seeded in 0.4 cm^2 transwell collagen I coated membranes with supplemented DMEM in both apical and basolateral compartments. […] After 48 hours, TEER readings were taken again and viability was measured by CellTiter 96® AQueous One Solution Cell Proliferation Assay (Promega)."}, "MIP-1α": {"tested_on": "MIP-1α", "assay": "Neutrophil Chemokine Production Assay: MIP-1α", "assay_type": "cell-based", "conditions": "human neutrophils, 12 h", "in_short": "(§1)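 Neutrophils were isolated from human blood by Histopaque-1077 separation and RBC lysis, then plated at 2.0×10^5 cells/well in RPMI complete. Cells were stimulated with LPS (10 μL of a 2 μg/mL solution) for 12 h at 37 °C. Supernatant chemokines were measured by Luminex multiplex, averaging three data points from two donors.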"}, "naïve CD4+ T cells": {"tested_on": "naïve CD4+ T cells", "assay": "Human Regulatory T Cell Differentiation Assay", "assay_type": "cell-based", "conditions": "6 days; for Treg induction % DMSO: TGF-β; for Cell viability % DMSO: viability dye", "in_short": "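Naïve CD4+ T cells from healthy-donor PBMCs cultured 6 days in OpTmizer medium with 5 ng/ml TGF-β, 100 U/ml IL-2 and CD3/CD28/CD2 activator, with or without compound. Tregs (live CD4+CD3+CD25+FOXP3+, lineage-negative) measured by flow cytometry and expressed as % of total CD4+ T cells.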"}, "IL-8": {"tested_on": "IL-8", "assay": "Neutrophil Chemokine Production Assay: IL-8", "assay_type": "cell-based", "conditions": "human neutrophils, 12 h", "in_short": "as §1"}, "AhR": {"molecular_target": "T1, AhR (Homo sapiens, UniProt P35869)", "T1 sequence (P35869 11-848)": "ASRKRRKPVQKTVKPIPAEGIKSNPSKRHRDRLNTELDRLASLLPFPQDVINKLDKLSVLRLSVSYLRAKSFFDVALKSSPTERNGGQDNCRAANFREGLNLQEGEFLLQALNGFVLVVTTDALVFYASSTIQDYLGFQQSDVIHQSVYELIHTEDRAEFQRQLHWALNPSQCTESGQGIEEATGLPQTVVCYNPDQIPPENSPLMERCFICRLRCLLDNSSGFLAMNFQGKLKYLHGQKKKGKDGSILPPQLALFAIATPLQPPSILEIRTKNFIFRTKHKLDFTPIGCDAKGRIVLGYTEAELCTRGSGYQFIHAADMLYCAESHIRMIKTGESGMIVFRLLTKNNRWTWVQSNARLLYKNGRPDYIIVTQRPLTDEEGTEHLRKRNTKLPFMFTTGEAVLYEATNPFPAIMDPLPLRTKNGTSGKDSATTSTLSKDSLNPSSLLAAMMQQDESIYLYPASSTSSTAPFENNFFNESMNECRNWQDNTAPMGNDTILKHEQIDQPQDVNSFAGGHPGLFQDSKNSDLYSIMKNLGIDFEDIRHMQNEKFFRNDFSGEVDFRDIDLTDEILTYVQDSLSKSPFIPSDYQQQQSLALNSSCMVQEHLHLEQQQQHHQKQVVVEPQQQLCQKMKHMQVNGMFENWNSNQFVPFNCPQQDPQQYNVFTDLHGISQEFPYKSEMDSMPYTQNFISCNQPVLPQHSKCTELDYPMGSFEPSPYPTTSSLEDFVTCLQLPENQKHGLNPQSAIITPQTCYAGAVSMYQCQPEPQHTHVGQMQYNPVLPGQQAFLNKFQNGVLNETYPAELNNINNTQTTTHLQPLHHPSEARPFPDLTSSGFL", "assay": "AhR Activation in Caco-2 Cells Through CYP1A1 mRNA Expression", "conditions": "overnight", "method": "Caco-2 cells from American Type Culture Collection (ATCC) were plated in a sterile tissue culture treated 96-well plate (ThermoFisher) at 8.0×10^5 cells per well, and grown overnight at 37° C., 5% CO2 in DMEM complete (Gibco) in order to achieve confluence. After the incubation medium was aspirated off of the Caco-2 monolayers, tissues were then washed with 200 μL of warmed PBS solution, and subsequently 190 μL of pre-warmed growth medium was added to each well. Compounds of interest were diluted at a 20× concentration in growth medium containing 2% DMSO, and 10 μL of compound solutions were added to respective wells in triplicate. Compounds where incubated overnight at 37° C., 5% CO2. 2-(1′H-indole-3′-carbonyl)-thiazole-4-carboxylic acid methyl ester (ITE) was used as the positive control for AhR activation at 1 and 100 μM concentrations. At the end of the incubation, medium was aspirated off of the Caco-2 cells, and washed with 100 μL of cold PBS solution. RNA was extracted via the TaqMan™ Gene Expression Cells-to-CT™ Kit (ThermoFisher) according to the manufacturer's protocol. The QuantStudio 6 Flex (Applied Biosciences) was used to analyze mRNA levels of CYP1A1 using GAPDH as the endogenous control. TaqMan™ probe sets for both genes were acquired from ThermoFisher. Samples were run in triplicate and data was analyzed using the QuantStudio software and reported as linear (Table 6) and log 2(ΔΔCT) values. Statistical analysis was performed using a two-tailed t-test comparing CYP1A1 levels in the presence of each individual compound to the vehicle negative control."}, "MIP-1β": {"tested_on": "MIP-1β", "assay": "Neutrophil Chemokine Production Assay: MIP-1β", "assay_type": "cell-based", "conditions": "human neutrophils, 12 h", "in_short": "as §1"}}, "note": "Where a name gives a salt, the structure may show the parent alone.", "data": [{"compound": "CCC(=O)O[C@@H]1[C@@H](OC(=O)CC)[C@H](C)O[C@@H](OC(=O)/C=C/C(=O)OC)[C@@H]1OC(=O)CC", "note": "[Compound 2, Methyl ((2S,3R,4R,5S,6S)-6-methyl-3,4,5-tris(propionyloxy)tetrahydro-2H-pyran-2-yl) fumarate]", "values": [{"measurement": "Assay 3 (% Remaining at 24 h)", "setting": "[1]", "result": "C (C: >75% of the tested compound remaining)"}, {"measurement": "Assay 2 (SIF) (% @ Remaining 4 hours)", "setting": "[2]", "result": "B (B: 25-75% of the tested compound remaining)"}, {"measurement": "Release of monomethyl fumaric acid (MMF)", "setting": "[3]", "result": "actively released"}, {"measurement": "Assay 1 (SGF) (% Remaining @ 1 hour)", "setting": "[4]", "result": "C (C: >75% of the tested compound remaining)"}]}, {"compound": "COC(=O)/C=C/C(=O)OCCN1C(=O)CCC1=O", "note": "[Diroximel Fumarate, diroximel fumarate]", "values": [{"measurement": "AUClast", "setting": "[5]", "result": 9381, "unit": "ng·h/mL"}, {"measurement": "Cmax", "setting": "[5]", "result": 17251, "unit": "ng/mL"}, {"measurement": "Tmax", "setting": "[5]", "result": 15, "unit": "min"}]}, {"compound": "O=C(O[C@@H]1Cc2c(O)cc(O)cc2O[C@@H]1c1cc(O)c(O)c(O)c1)c1cc(O)c(O)c(O)c1", "note": "[epigallocatechin gallate]", "values": [{"measurement": "% Change in TEER from DMSO", "setting": "Caco-2 colonocytes; 100 nM", "result": "− (<125%: −)"}, {"measurement": "% Change in TEER from DMSO", "setting": "Caco-2 colonocytes; 1 μM", "result": "− (<125%: −)"}, {"measurement": "% MIP-1α (Vehicle + LPS = 100%)", "setting": "MIP-1α; Conc. 0.1 μM", "result": "− (− = >90% Vehicle)"}, {"measurement": "% MIP-1α (Vehicle + LPS = 100%)", "setting": "MIP-1α; Conc. 1.0 μM", "result": "− (− = >90% Vehicle)"}, {"measurement": "Treg induction % DMSO", "setting": "naïve CD4+ T cells; IL-2, 100 nM", "result": "= (90% > <110%: =)"}, {"measurement": "Treg induction % DMSO", "setting": "naïve CD4+ T cells; IL-2, 1 μM", "result": "= (90% > <110%: =)"}, {"measurement": "Cell viability % DMSO", "setting": "naïve CD4+ T cells; 100 nM", "result": "= (90% > <110%: =)"}, {"measurement": "Cell viability % DMSO", "setting": "naïve CD4+ T cells; 1 μM", "result": "= (90% > <110%: =)"}, {"measurement": "% IL-8 (Vehicle + LPS = 100%)", "setting": "IL-8; Conc. 0.1 μM", "result": "− (− = >90% Vehicle)"}, {"measurement": "% IL-8 (Vehicle + LPS = 100%)", "setting": "IL-8; Conc. 1.0 μM", "result": "− (− = >90% Vehicle)"}, {"measurement": "Average CYP1A1 mRNA levels", "setting": "AhR; Conc. 0.1 μM", "result": "− (− = <2-fold Vehicle)"}, {"measurement": "Average CYP1A1 mRNA levels", "setting": "AhR; Conc. 1.0 μM", "result": "− (− = <2-fold Vehicle)"}, {"measurement": "% MIP-1β (DMSO + LPS = 100%)", "setting": "MIP-1β; Conc. 0.1 μM", "result": "− (− = >90% Vehicle)"}, {"measurement": "% MIP-1β (DMSO + LPS = 100%)", "setting": "MIP-1β; Conc. 1.0 μM", "result": "− (− = >90% Vehicle)"}]}, {"compound": "c1ccc2[nH]ccc2c1", "note": "[indole]", "values": [{"measurement": "Average CYP1A1 mRNA levels", "setting": "AhR; Conc. 1000.0 μM", "result": "+ (+ = >2-fold Vehicle)"}]}]}
